Measured values from patent US8420820B2, “Pyrrolopyridinylpyrimidin-2-ylamine derivatives” (Merck Patent GmbH, priority 2008, dated 2013).

Assays:
PDK1 = biological target: T1, PDK1 (Homo sapiens, UniProt O15530); assay: Test for the inhibition of PDK1 (flashplate, 33P-ATP); type: biochemical; settings: His6-PDK1 3.4 nM, 4 μM ATP, 30° C., 60 min
T1 construct: His6 (N)
Protocol: The experimental batches are carried out in a flashplate system with 384 wells/microtitration plate.
In each case, the PDK1 sample His6-PDK1(SEQ ID NO: 2)(1-50)(3.4 nM), the PDK1 substrate biotin-bA-bA-[…] (SEQ ID NO: 3) (400 nM), 4 μM ATP (with 0.2 μCi of ^33P-ATP/well) and the test substance in 50 μl of conventional experimental solution per well are incubated at 30° C. for 60 min. The test substances are employed in corresponding concentrations (if desired in a dilution series). The control is carried out without test substance. The reaction is stopped using standard methods and washed. The activity of the kinase is measured via the incorporated radioactivity in top count. In order to determine the non-specific kinase reaction (blank value), the experimental batches are carried out in the presence of 100 nM staurosporin.
The radioactivity (decompositions per minute) of the blank value (no use of test substance in the presence of staurosporin) is subtracted from all other radioactivity values. The controls (kinase activity without test substance) are set equal to 100 percent and all other radioactivity values (after subtracting the blank value) are expressed set in relation thereto (for example in % of the control).
IC50 values (50% inhibition) are determined with the aid of statistics programmes, such as, for example, RS1.

[1] = tested on: PDK1 kinase activity in PC3 cells (phospho-T308-PKB); assay: Cellular testing of PDK1 kinase inhibitors in PC3 cells (Luminex, phospho-T308-PKB); type: cell-based; settings: Homo sapiens, PC-3, 0.5 h, 30 min with test substance, serum-free, phospho-T308-PKB by Luminex, read-out: IC50 [PC3 P-PKB Thr308]
Protocol: Method for the Cellular Testing of PDK1 Kinase Inhibitors in PC3 Cells.
The cellular assay for the determination of the PDK1 kinase activity is carried out as a Luminex assay in the 96-well format. PC3 cells are sown at 20,000 cells per well in 100 μl of medium (45% of […]/45% of Ham's F12/10% of FCS) and incubated on the following day for 30 min with a serial dilution of the test substance (7 concentrations) under serum-free conditions. The cells are subsequently lysed using 90 μl of lysis buffer (20 mM tris/HCl pH 8.0, 150 mM NaCl, 1% of NP40, 10% of glycerol, 1% of phosphatase inhibitor I, 1% of phosphatase inhibitor II, 0.1% of protease inhibitor cocktail III, 0.01% of benzonase) per well, and the lysates are separated off from insoluble cell constituents by means of centrifugation through a 96-well filter plate (0.65 μm). The lysates are incubated overnight at 4° C. with shaking with Luminex beads to which an anti-total PKB antibody is coupled. The detection is carried out on the following day by addition of a phospho-T308-PKB antibody and a species-specific […] secondary antibody. The detection of phospho-T308-PKB is carried out by measurement in a Luminex100 instrument by determination of 100 events per cavity in a measurement time of 60 sec. As pharmacological blank, the signals obtained from cells which have been treated with 10 μM staurosporin are subtracted from all other batches. The control value used for maximum phosphorylation of PKB on T308 are the signals from cells which have only been treated with the solvent (0.3% of DMSO). The values of the batches treated with test substance are calculated therefrom as percentage of control, and IC50 values are determined by means of RS1.

T1 sequence (O15530 51-556): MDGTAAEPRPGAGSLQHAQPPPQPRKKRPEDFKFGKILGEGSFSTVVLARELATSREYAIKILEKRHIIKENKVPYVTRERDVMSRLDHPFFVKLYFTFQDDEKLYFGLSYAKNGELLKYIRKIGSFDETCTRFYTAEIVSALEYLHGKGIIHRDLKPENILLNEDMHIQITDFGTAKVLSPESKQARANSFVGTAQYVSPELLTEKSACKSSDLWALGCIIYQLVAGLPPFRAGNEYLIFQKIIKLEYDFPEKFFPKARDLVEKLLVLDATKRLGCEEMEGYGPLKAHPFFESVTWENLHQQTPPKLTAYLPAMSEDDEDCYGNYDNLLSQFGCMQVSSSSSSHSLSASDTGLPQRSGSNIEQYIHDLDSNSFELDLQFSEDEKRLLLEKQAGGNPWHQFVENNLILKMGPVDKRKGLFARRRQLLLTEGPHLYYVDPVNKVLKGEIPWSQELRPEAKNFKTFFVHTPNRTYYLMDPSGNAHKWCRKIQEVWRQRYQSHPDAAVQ

Row | Compound | IC50 (PDK1) | IC50 [1]
1 | CCCCc1cc(-c2c[nH]c3ncc(-c4cnn(C5CCNCC5)c4)cc23)nc(N)n1 [Compound A87, 4-Butyl-6-[5-(1-piperidin-4-yl-1H-pyrazol-4-yl)-1H-pyrrolo[2,3-b]pyridin-3-yl]-pyrimidin-2-ylamine] | 10 to 1000 nM | 1 to 10 µM
2 | CC(C)n1cc(-c2cnc3[nH]cc(-c4cc(CCn5ccnc5)nc(N)n4)c3c2)cn1 [Compound A110, 4-(2-Imidazol-1-ylethyl)-6-[5-(1-isopropyl-1H-pyrazol-4-yl)-1H-pyrrolo[2,3-b]-pyridin-3-yl]pyrimidin-2-ylamine] | 10 to 1000 nM | 10 to 20 µM
3 | CCc1cc(-c2c[nH]c3ncc(-c4cnn(Cc5ccc(F)c(F)c5)c4)cc23)nc(N)n1 [Compound A99, 4-{5-[1-(3,4-Difluorobenzyl)-1H-pyrazol-4-yl]-1H-pyrrolo[2,3-b]pyridin-3-yl}-6-ethylpyrimidin-2-ylamine] | 10 to 1000 nM | 10 to 20 µM
4 | CCCCc1cc(-c2c[nH]c3ncc(-c4cnn(CCN(C)C)c4)cc23)nc(N)n1 [Compound A85, 4-Butyl-6-{5-[1-(2-dimethylaminoethyl)-1H-pyrazol-4-yl]-1H-pyrrolo[2,3-b]-pyridin-3-yl}pyrimidin-2-ylamine] | 10 to 1000 nM | 1 to 10 µM
5 | CCCC(O)c1cc(-c2c[nH]c3ncc(-c4cnn(C(C)C)c4)cc23)nc(N)n1 (centres unmarked) [Compound A35, 1-{2-Amino-6-[5-(1-isopropyl-1H-pyrazol-4-yl)-1H-pyrrolo[2,3-b]pyridin-3-yl]-pyrimidin-4-yl}butan-1-ol] | 10 to 1000 nM | 1 to 10 µM
6 | CC(C)CC(O)c1cc(-c2c[nH]c3ncc(-c4cnn(C(C)C)c4)cc23)nc(N)n1 (centres unmarked) [Compound A104, 1-{2-Amino-6-[5-(1-isopropyl-1H-pyrazol-4-yl)-1H-pyrrolo[2,3-b]pyridin-3-yl]-pyrimidin-4-yl}-3-methylbutan-1-ol] | 10 to 1000 nM | 1 to 10 µM
7 | CCCC(O)c1cc(-c2c[nH]c3ncccc23)nc(N)n1 (centres unmarked) [Compound A48, 1-[2-Amino-6-(1H-pyrrolo[2,3-b]pyridin-3-yl)pyrimidin-4-yl]butan-1-ol] | 1000 to 10000 nM | 10 to 20 µM
8 | CCc1cc(-c2c[nH]c3ncc(-c4cnn(C5CCN(S(C)(=O)=O)CC5)c4)cc23)nc(N)n1 [Compound A44, 4-Ethyl-6-{5-[1-(1-methanesulfonylpiperidin-4-yl)-1H-pyrazol-4-yl]-1H-pyrrolo[2,3-b]pyridin-3-yl}pyrimidin-2-ylamine] | 10 to 1000 nM | 1 to 10 µM
9 | CCc1cc(-c2c[nH]c3ncc(-c4cnn(Cc5cccc(F)c5)c4)cc23)nc(N)n1 [Compound A98, 4-Ethyl-6-{5-[1-(3-fluorobenzyl)-1H-pyrazol-4-yl]-1H-pyrrolo[2,3-b]pyridin-3-yl}pyrimidin-2-ylamine] | 10 to 1000 nM | 1 to 10 µM
10 | CCc1cc(-c2c[nH]c3ncc(-c4ncc(-c5cccc(N)c5)o4)cc23)nc(N)n1 [Compound A42, 4-{5-[5-(3-Aminophenyl)oxazol-2-yl]-1H-pyrrolo[2,3-b]pyridin-3-yl}-6-ethylpyrimidin-2-ylamine] | 1000 to 10000 nM | 10 to 20 µM
11 | CC(C)N1CCC(O)(c2cc(-c3c[nH]c4ncc(-c5cnn(C(C)C)c5)cc34)nc(N)n2)CC1 [Compound A114, 4-{2-Amino-6-[5-(1-isopropyl-1H-pyrazol-4-yl)-1H-pyrrolo[2,3-b]pyridin-3-yl]-pyrimidin-4-yl}-1-isopropylpiperidin-4-ol] | 10 to 1000 nM | 10 to 20 µM
12 | Nc1nc(-c2c[nH]c3ncccc23)cc(C2(O)CCN(C(=O)OCc3ccccc3)CC2)n1 [Compound A113, 4-[2-Amino-6-(1H-pyrrolo[2,3-b]pyridin-3-yl)pyrimidin-4-yl]-4-hydroxypiperidine-1-carboxylic acid benzyl ester] | 1000 to 10000 nM | 1 to 10 µM
13 | CC(C)n1cc(-c2cnc3[nH]cc(-c4cc(C5(O)CCN(C(=O)OCc6ccccc6)CC5)nc(N)n4)c3c2)cn1 [Compound A122, 4-{2-Amino-6-[5-(1-isopropyl-1H-pyrazol-4-yl)-1H-pyrrolo[2,3-b]pyridin-3-yl]-pyrimidin-4-yl}-4-hydroxypiperidine-1-carboxylic acid benzyl ester] | 10 to 1000 nM | 10 to 20 µM
14 | CC(C)n1cc(-c2cnc3[nH]cc(-c4cc(CCCn5ccnc5)nc(N)n4)c3c2)cn1 [Compound A108, 4-(3-Imidazol-1-ylpropyl)-6-[5-(1-isopropyl-1H-pyrazol-4-yl)-1H-pyrrolo-[2,3-b]pyridin-3-yl]pyrimidin-2-ylamine] | 10 to 1000 nM | 10 to 20 µM
15 | CC(O)Cc1cc(-c2c[nH]c3ncc(-c4cnn(C(C)C)c4)cc23)nc(N)n1 (centres unmarked) [Compound A36, 1-{2-Amino-6-[5-(1-isopropyl-1H-pyrazol-4-yl)-1H-pyrrolo[2,3-b]pyridin-3-yl]-pyrimidin-4-yl}propan-2-ol] | 10 to 1000 nM | 10 to 20 µM
16 | CCc1cc(-c2c[nH]c3ncc(-c4cnn(CC5CCNC5)c4)cc23)nc(N)n1 (centres unmarked) [Compound A9] | 10 to 1000 nM | 10 to 20 µM

Further lines, results first:

Row | IC50 (PDK1) | IC50 [1] | Compound
17 | 10 to 1000 nM | 10 to 20 µM | CC(C)n1cc(-c2cnc3[nH]cc(-c4cc(CCN5CCN(C)CC5)nc(N)n4)c3c2)cn1 [Compound A43, 4-[5-(1-Isopropyl-1H-pyrazol-4-yl)-1H-pyrrolo[2,3-b]pyridin-3-yl]-6-[2-(4-methylpiperazin-1-yl)ethyl]pyrimidin-2-ylamine]
18 | 10 to 1000 nM | 10 to 20 µM | CCc1cc(-c2c[nH]c3ncc(-c4cnn(CC(=O)N5CCOCC5)c4)cc23)nc(N)n1 [Compound A32, 2-{4-[3-(2-Amino-6-ethylpyrimidin-4-yl)-1H-pyrrolo[2,3-b]pyridin-5-yl]pyrazol-1-yl}-1-morpholin-4-ylethanone]
19 | 10 to 1000 nM | 10 to 20 µM | CN(C)CCn1cc(-c2cnc3[nH]cc(-c4cc(CCCCO)nc(N)n4)c3c2)cn1 [Compound A39, 4-(2-Amino-6-{5-[1-(2-dimethylaminoethyl)-1H-pyrazol-4-yl]-1H-pyrrolo-[2,3-b]pyridin-3-yl}pyrimidin-4-yl)butan-1-ol]
20 | 10 to 1000 nM | 1 to 10 µM | CCc1cc(-c2c[nH]c3ncc(-c4cnn(CC(=O)N5CCCc6ccccc65)c4)cc23)nc(N)n1 [Compound A128, 2-{4-[3-(2-Amino-6-ethylpyrimidin-4-yl)-1H-pyrrolo[2,3-b]pyridin-5-yl]pyrazol-1-yl}-1-(3,4-dihydro-2H-quinolin-1-yl)ethanone]
21 | 1000 to 10000 nM | 10 to 20 µM | CCc1cc(-c2c[nH]c3ncc(-c4ccc(Cl)s4)cc23)nc(N)n1 [Compound A37, 4-[5-(5-Chlorothiophen-2-yl)-1H-pyrrolo[2,3-b]pyridin-3-yl]-6-ethylpyrimidin-2-ylamine]
22 | 10 to 1000 nM | 1 to 10 µM | CCc1cc(-c2c[nH]c3ncc(-c4cnn(C(C)C(=O)Nc5ccc6[nH]ccc6c5)c4)cc23)nc(N)n1 (centres unmarked) [Compound A121, 2-{4-[3-(2-Amino-6-ethylpyrimidin-4-yl)-1H-pyrrolo[2,3-b]pyridin-5-yl]pyrazol-1-yl}-N-(1H-indol-5-yl)propionamide]
23 | 10 to 1000 nM | 10 to 20 µM | CCc1cc(-c2c[nH]c3ncc(-c4cnn(CC(=O)NC5CCN(C)CC5)c4)cc23)nc(N)n1 [Compound A30, 2-{4-[3-(2-Amino-6-ethylpyrimidin-4-yl)-1H-pyrrolo[2,3-b]pyridin-5-yl]pyrazol-1-yl}-N-(1-methylpiperidin-4-yl)acetamide]
24 | 10 to 1000 nM | 10 to 20 µM | CC(C)n1cc(-c2cnc3[nH]cc(-c4cc(C5(O)CCCCC5)nc(N)n4)c3c2)cn1 [Compound A53, 1-{2-Amino-6-[5-(1-isopropyl-1H-pyrazol-4-yl)-1H-pyrrolo[2,3-b]pyridin-3-yl]-pyrimidin-4-yl}cyclohexanol]
25 | 10 to 1000 nM | 10 to 20 µM | Nc1nc(-c2c[nH]c3ncccc23)cc(C2CCCCC2)n1 [Compound A105, 4-Cyclohexyl-6-(1H-pyrrolo[2,3-b]pyridin-3-yl)pyrimidin-2-ylamine]
